From patent US7915268B2, “8-substituted 2-(benzimidazolyl)purine derivatives for immunosuppression” (Wyeth LLC, priority 2006, dated 2011)

Experiments:
[1] = system: spontaneous autoimmune diabetes; settings: NOD mouse; cited from earlier work
GVHD = settings: in vivo; cited from earlier work
Jak3 = target: T1, Jak3 (Homo sapiens, UniProt P52333); assay: Jak3 Kinase Assay (HTRF, GST-Jak3 catalytic domain); format: biochemical; settings: 1 μM ATP, 60-min incubation, read-out: Jak 3 (Converted)
T1 construct: catalytic domain of Jak3 (508aa to 1124aa); made in house; host or cells: Sf9 insect cells (baculovirus, pFastBac 1)
T1 sequence (P52333 508-1124): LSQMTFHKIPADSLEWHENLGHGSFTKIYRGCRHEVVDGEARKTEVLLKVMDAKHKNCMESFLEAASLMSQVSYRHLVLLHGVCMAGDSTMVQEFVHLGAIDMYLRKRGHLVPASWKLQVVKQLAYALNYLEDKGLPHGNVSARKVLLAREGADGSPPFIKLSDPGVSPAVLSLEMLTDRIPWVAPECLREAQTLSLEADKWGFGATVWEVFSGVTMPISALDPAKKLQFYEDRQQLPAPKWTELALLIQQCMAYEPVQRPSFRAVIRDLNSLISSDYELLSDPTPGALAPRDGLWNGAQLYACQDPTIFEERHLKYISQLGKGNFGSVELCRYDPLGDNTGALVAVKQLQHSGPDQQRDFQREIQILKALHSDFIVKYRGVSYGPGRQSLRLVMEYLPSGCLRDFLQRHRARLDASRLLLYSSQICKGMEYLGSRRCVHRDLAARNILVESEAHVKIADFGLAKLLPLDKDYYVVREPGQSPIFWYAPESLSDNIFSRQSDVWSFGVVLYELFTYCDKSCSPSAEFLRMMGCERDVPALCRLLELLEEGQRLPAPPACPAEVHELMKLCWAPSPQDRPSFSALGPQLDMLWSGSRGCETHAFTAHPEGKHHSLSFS
Protocol: Human Jak3 cDNA was amplified by PCR. A fragment encoding the catalytic domain of Jak3 (508aa to 1124aa) was ligated with GST at 5′ end. This fused GST-Jak3 DNA fragment was cloned into the EcoRI site of the donor plasmid pFastBac 1 (Life Technologies #10359-016). The transformation, transposition, and transfection of insect cells (Sf9) were performed according to the manufacture's instructions. The cell lysate containing recombinant GST-Jak3 was used in the kinase assay. Anti-GST antibody (10 μg/ml, Sigma #G1417) was coated onto a 384-well plate at 4° C. overnight. Cell lysate containing GST-Jak3 (1:100 dilution) was added to the anti-GST coated plates, and GST-Jak3 was captured by immobilized anti-GST antibody. Testing compounds and substrate mix (50 mM HEPES, pH 7, 0.5 mM Na3VO4, 25 mM MgCl2, 1 mM DTT, 0.005% BSA, 1 μM ATP, and 4.5 μg/ml biotinyl poly-Glu, Ala, Tyr) were added to the plate to initiate the reaction. After a 60-min incubation, the reaction was stopped by 4 mM EDTA, and phosphorylation of biotinyl poly-Glu, Ala, Tyr was detected using 17 μg/ml Cy5-streptavidin (Amersham, #PA92005) and 2.7 μg/ml Europium-conjugated anti-phosphotyrosine antibody (PerkinElmer #AD0069) using homogeneous time-resolved fluorescence (HTRF) technology.

IFN-γ production = assay: IL-2-Induced IFN-γ Production in the Mouse; format: in vivo; settings: oral dose at 30 mg/kg, BALB/c mice, serum IFN-γ
Protocol: IL-2-Induced IFN-γ Production in the Mouse
Administration of IL-2 leads to an increase in serum IFN-γ in the mouse due to NK secretion of the cytokine (Thornton S, Kuhn K A, Finkelman F D and Hirsch R. NK cells secrete high levels of IFN-γ in response to in vivo administration of IL-2. Eur J Immunol 2001 31:3355-3360). The experiment is carried out essentially according to the protocol in Thornton et al. and the test compounds are administered in order to determine the level of inhibition attained. In summary, female BALB/c mice are fasted for 12-18 hours before a study but have free access to water at all times. Test compounds are administered by gavage one hour before intraperitoneal injection of IL-2 and capture antibody. At termination of the studies, the mice are sacrificed by carbon dioxide inhalation, terminal blood samples are collected by cardiac puncture and serum is generated. Serum is stored frozen until assayed for IFN-γ, as described by the kit manufacturer (BD Pharmingen™, San Diego, Calif.).

heart transplantation = settings: murine heart transplantation; cited from earlier work
kidney transplantation = settings: primate kidney transplantation; cited from earlier work

IC50 (Jak3) [nM] | SMILES | inhibit IFN-γ production (IFN-γ production) [%] | further results
– | COc1cc2ncnc(Nc3ccc(O)cc3)c2cc1OC [WHI-P131] | – | spontaneous autoimmune diabetes development [1]: prevent spontaneous autoimmune diabetes development; severity of GVHD (GVHD): attenuate the severity of GVHD
< 100 | N#Cc1ccc2ncn(-c3ncc4nc(-c5cncnc5)n([C@@H]5CCOc6c(F)cccc65)c4n3)c2c1 [Example 13, 3-(9-((R)-8-fluorochroman-4-yl)-8-(pyrimidin-5-yl)-9H-purin-2-yl)-3H-benzo[d]imidazole-5-carbonitrile] | 76 | –
– | C[C@@H]1CCN(C(=O)CC#N)C[C@@H]1N(C)c1ncnc2[nH]ccc12 [CP-690,550] | – | animal survival (heart transplantation): prolong animal survival; animal survival (kidney transplantation): prolong animal survival
< 100 | N#Cc1ccc2ncn(-c3ncc4nc(-c5cncnc5)n(C5CCOc6c(F)ccc(F)c65)c4n3)c2c1 (centres unmarked) [Example 6] | 93 | –
